According to US20220193242A1, “IMMUNOPHILIN-DEPENDENT INHIBITORS AND USES THEREOF” (The Regents of the University of California, priority 2019, published 2022):
pKd: −log10 of the molar value.

Columns and labels:
[1] = biological target: T1, Src and HA-FKBP12 (Homo sapiens, UniProt P12931+P62942); assay: Immunoprecipitation of HA-FKBP12 from Jurkat cell lysate; assay type: binding; conditions: Jurkat cell lysate 1 mg/mL, 1 μM compound
T1 construct: endogenous in cells; host or cells: Jurkat cell lysate (Src); HA-FKBP12 added as purified protein
Method: FIGS. 2A-2C. […] Fractions of 0.5 mL were collected and analyzed by SDS-PAGE.
FIG. 23. […] Pulldown was performed with Jurkat cell lysate (1 mg/mL, 200 μL), supplemented with 2 μg HA-FKBP12. Pulldown/wash buffer: 50 mM Tris 7.4, 120 mM NaCl, 1% NP-40, 1 mM EDTA, phosphatase/protease inhibitors.

[2] = tested on: TCR signaling (phospho-tyrosine) in Jurkat cells; assay: CD3 crosslinking (OKT3) triggered T cell activation in Jurkat cells, Western blot; assay type: cell-based
Method: (§1) FIGS. 3A-3D. […] The phosphotyrosine levels were monitored by Western blot at various time points over 24 h.
FIG. 25. […] Jurkat cells (1×10^6/mL) were treated with the indicated drugs for 1 h, then stimulated with anti-CD3 mAb OKT3 (5 μg/mL) for 5 min. before lysis and analysis.

[3] = tested on: K562; conditions: K562, 72 h treatment
Method: FIG. 27. […] K562 (seeding density 5×10^4/mL) cells, 72 h treatment.

[4] = tested on: phosphotyrosine levels in Jurkat cells; assay: Drug washout, phosphotyrosine levels over 24 h in Jurkat cells; assay type: cell-based; conditions: 100 nM for 1 h
Method: as §1
FIG. 26. […] Jurkat cells (1×10^6/mL) were treated with 100 nM of the indicated compounds for 1 h, then were washed 3 times with PBS and resuspended in culture media. Samples were taken at the indicated time points and lysed immediately.

[5] = biological target: T2, FKBP12 (Homo sapiens, UniProt P62942); assay: FKBP12 dependence of activity (FIG. 19)
[6] = biological target: KRAS and CypA (Homo sapiens, UniProt P01116+P62937, G12C); assay: Melting curve of the KRAS.CypA complex; assay type: binding
[7] = tested on: Ras.Raf binding; assay: Ras.Raf binding pulldown; conditions: HRAS.CypA ternary complex
Method: FIG. 45. […] Pulldown conditions: 100 nM KRAS, 50 μg/mL BSA, 20 mM HEPES 7.5, 150 mM NaCl, 5 mM MgCl2, 1 mM […], 1% NP-40. GppNHp loaded proteins were prepared by EDTA-mediated nucleotide exchange.

[8] = biological target: HRAS, CypA, Sos (Homo sapiens, UniProt P01112+P62937, M72C); assay: HRAS.CypA ternary complex and Sos-mediated nucleotide exchange; assay type: biochemical
Method: FIG. 44. […] Assay conditions: 1 μM Ras.GDP, 1 μM Mant-GDP, 20 mM EPES 7.5, 150 mM NaCl, 10 mM EDTA or 1 μM Sos. 95A is synonymous to 06-031.

[9] = tested on: LRRK2; assay: Inhibition of LRRK2 autophosphorylation; assay type: cell-based
Method: (§2) FIGS. 4A-4C. A general approach to construct FKBP-dependent, programmable kinase inhibitors. (FIG. 4A) Structures of lapatinib and FK-lapatinib, their effects on HER2 signaling and the growth inhibition of SK-BR-3 cells by these compounds. (FIGS. 4B-4C) Structures of GNE7915 and FK-GNE7915 and their inhibition of LRRK2 autophosphorylation.
FIG. 30. […] 3T3 or RAW264.7 cells (MJFF cell line), 2 h treatment.
(§3) We extended our design strategy and prepared two other bispecific ligands based on the structures of an FDA-approved HER2/EGFR inhibitor (lapatinib) and an LRRK2 inhibitor in clinical development (GNE7915). […] With the three case studies presented above, we cautiously anticipate that the same workflow could be applied to convert other kinase inhibitors into FKBP-dependent formats with similar if not better cellular activities.

[10] = biological target: T2, FKBP12; assay: Fluorescence polarization assay of binding to FKBP12
[11] = tested on: HER2; assay: HER2 signaling in SK-BR-3 cells; assay type: cell-based; conditions: 1 μM
Text: as §2, §3

[12] = tested on: SK-BR-3 cells; assay: Growth inhibition of SK-BR-3 cells; assay type: cell-based
Text: as §2, §3

[13] = tested on: 139 kinases captured by the probe XO44; assay: In-cell kinase occupancy profiling with chemoproteomic probe XO44 in Jurkat cells; assay type: cell-based; conditions: 100 nM, among 139 kinases captured by XO44, Jurkat cells

T2 sequence (P62942 whole entry): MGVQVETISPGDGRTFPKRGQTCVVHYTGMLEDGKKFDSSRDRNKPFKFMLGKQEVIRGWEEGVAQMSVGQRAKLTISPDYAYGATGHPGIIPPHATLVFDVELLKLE
T1 sequence (P12931 2-536 limits assumed): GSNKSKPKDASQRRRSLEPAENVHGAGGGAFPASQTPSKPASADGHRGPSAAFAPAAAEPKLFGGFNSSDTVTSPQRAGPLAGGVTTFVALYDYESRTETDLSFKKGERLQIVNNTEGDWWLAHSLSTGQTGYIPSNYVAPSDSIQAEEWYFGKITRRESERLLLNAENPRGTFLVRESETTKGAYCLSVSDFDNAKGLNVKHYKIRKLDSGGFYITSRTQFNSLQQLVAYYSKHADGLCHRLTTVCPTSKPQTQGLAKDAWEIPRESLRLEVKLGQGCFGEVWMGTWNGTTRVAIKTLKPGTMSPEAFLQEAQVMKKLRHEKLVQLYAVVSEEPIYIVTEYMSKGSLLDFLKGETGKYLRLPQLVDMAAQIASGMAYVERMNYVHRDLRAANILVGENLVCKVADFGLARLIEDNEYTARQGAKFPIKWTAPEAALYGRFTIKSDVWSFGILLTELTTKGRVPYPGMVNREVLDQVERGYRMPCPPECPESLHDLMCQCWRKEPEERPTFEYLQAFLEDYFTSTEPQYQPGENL
T1 sequence (P62942 whole entry): as the sequence (P62942 whole entry) above

In the case of `CO[C@H]1C[C@@H](C)C/C(C)=C/[C@@H](CCCC(=O)N2CCN(c3cc(Nc4ncc(C(=O)Nc5c(C)cccc5Cl)s4)nc(C)n3)CC2)C(=O)C[C@H](O)[C@@H](C)[C@@H](/C(C)=C/[C@@H]2CC[C@@H](O)[C@H](OC)C2)OC(=O)[C@@H]2CCCCN2C(=O)C(=O)[C@]2(O)O[C@H]1[C@@H](OC)C[C@H]2C` [Compound 05-022], the “co-immunoprecipitation of Src with HA-FKBP12” value [1] was “form a stable ternary complex”, the “inhibition of phosphotyrosine signal” value [2] was “potently inhibits” and the growth inhibition [3] was “FKBP-dependent growth inhibition”. For the same compound, the “durability of effect after washout” value ([4]; washed 3 times with PBS) was “durable after washout” and the “dependence of activity on FKBP12” value [5] was “dependent on FKBP12”.

In the case of `C=CC(=O)N1CCN(c2nc(NCCC(=O)NCCNC(=O)CCC[C@@H](C)[C@@H](O)[C@H]3C(=O)N[C@@H](CC)C(=O)N(C)CC(=O)N(C)[C@@H](CC(C)C)C(=O)N[C@@H](C(C)C)C(=O)N(C)[C@@H](CC(C)C)C(=O)N[C@@H](C)C(=O)N[C@H](C)C(=O)N(C)[C@@H](CC(C)C)C(=O)N(C)[C@@H](CC(C)C)C(=O)N(C)[C@@H](C(C)C)C(=O)N3C)nc3c(F)c(-c4c(O)cccc4F)c(Cl)cc23)CC1` [Compound 07-014], the “melting curve of the complex” value [6] was 2-stage melting curve.

In the case of `C=CC(=O)Nc1cc(Cl)cc(NC(=O)c2cnn(-c3ccc(OCC(=O)N4CCN(C(=O)CCC[C@@H](C)[C@@H](O)[C@H]5C(=O)N[C@@H](CC)C(=O)N(C)CC(=O)N(C)[C@@H](CC(C)C)C(=O)N[C@@H](C(C)C)C(=O)N(C)[C@@H](CC(C)C)C(=O)N[C@@H](C)C(=O)N[C@H](C)C(=O)N(C)[C@@H](CC(C)C)C(=O)N(C)[C@@H](CC(C)C)C(=O)N(C)[C@@H](C(C)C)C(=O)N5C)CC4)cc3)c2C(F)(F)F)c1` [Compound 08-058], the Ras.Raf binding [7] was “does not seem to impair Ras.Raf binding”, the Sos-mediated nucleotide exchange ([8]; 1 μM Ras.GDP, 1 μM Mant-GDP, 1 μM Sos) was “inhibits Sos-mediated nucleotide exchange” and the ternary complex formation ([8]; HRAS, CypA) was “forms a ternary complex”.

`CCNc1nc(Nc2cc(F)c(C(=O)N3CCN(C(=O)CCC[C@@H]4/C=C(\C)C[C@H](C)C[C@H](OC)[C@H]5O[C@@](O)(C(=O)C(=O)N6CCCC[C@H]6C(=O)O[C@H](/C(C)=C/[C@@H]6CC[C@@H](O)[C@H](OC)C6)[C@H](C)[C@@H](O)CC4=O)[C@H](C)C[C@@H]5OC)CC3)cc2OC)ncc1C(F)(F)F` [Compound 08-074] was tested, and the “cellular activity compared to parent compound” value ([9]; 3T3 or RAW264.7 cells, 2 h treatment) was “more potent cellular activity than its parent compound GNE-7915”.

`C=CC[C@@H]1/C=C(\C)C[C@H](C)C[C@H](OC)[C@H]2O[C@@](O)(C(=O)C(=O)N3CCCC[C@H]3C(=O)O[C@H](/C(C)=C/[C@@H]3CC[C@@H](O)[C@H](OC)C3)[C@H](C)[C@@H](O)CC1=O)[C@H](C)C[C@@H]2OC` [FK506, tacrolimus, reference compound] was tested, and the “co-immunoprecipitation of Src with HA-FKBP12” value [1] was “not”.

Work on `CO[C@H]1C[C@@H](C)C/C(C)=C/[C@@H](CCCC(=O)N2CCN(c3cc(Nc4ncc(C(=O)Nc5c(C)cccc5Cl)s4)nc(C)n3)CC2)C(=O)C[C@H](O)[C@@H](C)[C@@H](/C(C)=C/[C@@H]2CC[C@@H](O)[C@H](OC)C2)OC(=O)[C@@H]2CCCCN2C(=O)C(=O)[C@]2(O)O[C@H]1[C@@H](OC)C[C@H]2C` [FK506-Dasatinib] yielded a pKd [10] of 7.64.

`CCNc1nc(Nc2cc(F)c(C(=O)N3CCN(C(=O)CCC[C@@H]4/C=C(\C)C[C@H](C)C[C@H](OC)[C@H]5O[C@@](O)(C(=O)C(=O)N6CCCC[C@H]6C(=O)O[C@H](/C(C)=C/[C@@H]6CC[C@@H](O)[C@H](OC)C6)[C@H](C)[C@@H](O)CC4=O)[C@H](C)C[C@@H]5OC)CC3)cc2OC)ncc1C(F)(F)F` [FK-GNE7915] was tested, and the “inhibition of LRRK2 autophosphorylation compared to parent” value [9] was “more efficacious than its parent molecule GNE7915”.

With `CO[C@H]1C[C@@H](C)C/C(C)=C/[C@@H](CCCC(=O)N2CCN(Cc3ccc(-c4ccc5ncnc(Nc6ccc(OCc7cccc(F)c7)c(Cl)c6)c5c4)o3)CC2)C(=O)C[C@H](O)[C@@H](C)[C@@H](/C(C)=C/[C@@H]2CC[C@@H](O)[C@H](OC)C2)OC(=O)[C@@H]2CCCCN2C(=O)C(=O)[C@]2(O)O[C@H]1[C@@H](OC)C[C@H]2C` [FK-lapatinib] the HER2 signaling [11] was “suppressed” and the “IC50 of growth inhibition” value [12] was “comparable to that of lapatinib”.

For `Cc1nc(Nc2ncc(C(=O)Nc3c(C)cccc3Cl)s2)cc(N2CCN(CCO)CC2)n1` [dasatinib, reference compound], the “number of kinases inhibited >70%” value [13] was 9 and the “time after drug washout at which phosphotyrosine signal is restored” value ([4]; then drug removed) was no more than 1 h.
